# Measured values published in ChEMBL document CHEMBL5728694, “Inhibitors of hepatitis C virus replication” (2021).
# Experiment: Measuring Compound Inhibitory Potency: Measurement of inhibition by compounds was performed using the HCV replicon system. Several different replicons encoding different HCV genotypes or mutations were used. In addition, potency measurements were made using different formats of the replicon assay, including different ways of measurements and different plating formats. See Jan M. Vrolijk et al., A replicons-based bioassay for the measurement of interferons in patients with chronic hepatitis C, 110 J. VIROLOGICAL METHODS 201 (2003); Steven S. Carroll et al., Inhibition of Hepatitis C Virus RNA Replication by 2′-Modified Nucleoside Analogs, 278(14) J. BIOLOGICAL CHEMISTRY 11979 (2003). However, the underlying principles are common to all of these determinations, and are outlined below.Stable neomycin phosphotransferase encoding replicon-harboring cell lines were used, so all cell lines were maintained under G418 selection prior to the assay. In some cases, the cell lines encoded a luciferase:Neor fusion and could be assayed either directly by determination of RNA copy number, or indirectly through measurement of the luciferase activity.To initiate an assay, replicon cells were plated in the presence of a dilution series of test compound in the absence of G418. Typically, the assays were performed in a 96-well plate format for manual operation, or a 384-well plate in an automated assay. […]
structure (smiles),measurement,value
COC(=O)N[C@H](C(=O)N1CCC[C@H]1c1ncc(-c2ccc3oc(-c4ccc(-c5cnc([C@@H]6CCCN6C(=O)[C@@H](NC(=O)OC)C(C)C)[nH]5)c(F)c4)cc3c2)[nH]1)C(C)C,EC50,4 pM
